Values of other authors, collected in patent publication US7148022B2, “Assay for anti-viral agent” (The University Court of the University of St. Andrews, priority 2000, dated 2006).

Tested on: picornavirus
Settings: background statement, refs 9 and 10

## C[C@H]1CCC/C=C/[C@@H]2C[C@H](O)C[C@H]2[C@H](O)/C=C/C(=O)O1 [Brefeldin-A]
  inhibition of picornavirus replication: one of the most potent known inhibitors
